Test results as given in publication PMC8662641, “Site-Specific Labeling of Endogenous Proteins Using CoLDR Chemistry” (Journal of the American Chemical Society, 2021).

Target: BTK kinase domain (Homo sapiens, UniProt Q06187)
Assay: Labeling of recombinant BTK by intact protein LC/MS
Type: binding
Set-up: BTK kinase domain was expressed and purified as previously reported; made in house
Settings: BTK 10.7 µM, 20 µM compound, 1 hour

BTK kinase domain, sequence (Q06187 402-655 limits assumed): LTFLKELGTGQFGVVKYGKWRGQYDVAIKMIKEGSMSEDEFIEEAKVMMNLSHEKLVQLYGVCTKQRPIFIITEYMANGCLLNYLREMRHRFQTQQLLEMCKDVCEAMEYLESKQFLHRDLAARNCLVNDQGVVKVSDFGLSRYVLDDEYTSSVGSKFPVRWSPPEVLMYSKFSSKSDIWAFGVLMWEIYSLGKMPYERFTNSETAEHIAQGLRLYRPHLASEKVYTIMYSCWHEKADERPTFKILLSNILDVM

With `C#CCCNC(=O)C(=C)CN1CCC[C@@H](n2nc(-c3ccc(Oc4ccccc4)cc3)c3c(N)ncnc32)C1` [1b] the “labeling of BTK (SPR sample preparation)” value was 100%.
